Results taken from patent US5650442A (priority 1994, dated 1997).

Legend:
[1] = tested on: Chinese hamster V79 lung fibroblasts; assay: Cytotoxicity of the agents alone to V79 cells, clonogenic assay; settings: no radiation
Protocol: (§1) Chinese hamster V79 lung fibroblasts were cultured in F12 medium supplemented with 10% fetal calf serum and antibiotics. […] The assay system was specifically designed to evaluate radiation sensitivity of cells exposed to radiation under both aerobic and hypoxic conditions (Mitchell et al., Radiat. Res., 96, 422-428 (1983); Russo et al., Radiat. Res., 103, 232-239 (1985); and DeGraff et al., Int. J. Radiat. Oncol. Biol. Phys., 16, 1021-1024 (1989)).
(§2) When cultured cells were exposed to DEA/NO in subsequent examples, DEA/NO in F12 medium with 10 mM HEPES buffer, pH 7.0, was used. […] Control cells in subsequent examples were exposed to 0.02N NaOH, instead of DEA/NO.
Radiation survival curves for V79 cells exposed to varying concentrations of DEA/NO and various DEA/NO decomposition products under hypoxic conditions (metabolic hypoxia induction) are shown in FIG. 1A, which is a graph of the surviving fraction versus dose (Gy). Lines in FIG. 1A represent control (.circle-solid.) and 0.1 mM (Δ), 0.5 mM (.largecircle.), 1.0 mM (.quadrature.), and 2.0 mM (.box-solid.) DEA/NO. Survival curves were corrected for drug cytotoxicity as appropriate.
DEA/NO (2.0 mM) was allowed to decompose to liberate NO in medium maintained at 37° C. overnight in a flask open to the air for use as an additional control. The medium containing the DEA/NO decomposition products was then used to evaluate possible effects on radiosensitization.

[2] = tested on: Chinese hamster V79 lung fibroblasts; assay: Radiation survival of aerobic V79 cells, clonogenic assay; assay type: cell-based
Protocol: as §1, §2
Following irradiation, the various cell suspensions were pipetted, counted, diluted, and plated for macroscopic colony formation. Each dose determination was plated in triplicate and experiments were repeated a minimum of two times. Plates were incubated for seven days, after which colonies were fixed with methanol/acetic acid (3:1), stained with crystal violet, and counted. Colonies containing >50 cells were scored and graphed as FIGS. 1-3. Error bars in the graphs represent the standard deviation of the mean and are shown when larger than the symbol used to designate a data point. Survival curve data were fitted using a linear quadratic model of Albright (Radiat. Res., 112, 331-340 (1987)), and the survival curves shown in the figures represent the best fit curves for the experimental data points. Sensitizer enhancement ratios (SER) were calculated by dividing the radiation dose for control hypoxic conditions by the radiation dose for various agents under hypoxic conditions at the 1% surviving fraction level.

KHT tumors = assay: In vivo radiosensitization of KHT tumors (regrowth delay); design: species or system C3H mice
Protocol: This murine model is one which is routinely used to test hypoxic radiosensitizers. In fact, results obtained with this model were used as a basis for initiating clinical trials of nitroimidazoles as radiation sensitizers in the early to mid-1970's.
C3H mice with hind leg implants of KHT tumors were exposed to radiation. When the tumors had grown to 8 mm in circumference, the mice were treated with DEA/NO alone (control), 15 cGy directed at the tumor, or DEA/NO given 30 minutes before tumor irradiation with 15 cGy (DEA/NO (30 min)). The mice experienced a tumor regrowth delay of one day after treatment of the tumor with 15 cGy.

C3H mice = assay: Protection of mice from whole body irradiation; assay type: in vivo; settings: for Percent survival of mice at 30 days: 1100 cGy
Excerpt: Female C3H mice were obtained from the Frederick Cancer Research Center--Animal Production in Frederick, Md. C3H mice have been used in whole body irradiation studies since 1948 (Patt, et al., Science, 110, 213-214 (1949)) and are considered to serve as good models for predicting the effects of radiation in humans.
C3H mice were received at six weeks of age and were housed five per cage in climate-controlled, circadian rhythm-adjusted rooms and allowed food and water ad libitum. The animals were 60-80 days old at the time of radiation. A total of 10-15 mice were used per radiation dose. Mice were weighed in groups of five. The weights of each group ranged from 110 grams to 135 grams or an average weight of 22-27 grams per mouse.
In all experiments drugs and diluent (in control mice) were injected intraperitoneally into mice in volumes equivalent to 1% of each animal's weight (0.22 to 0.27 ml). Groups of 5-10 mice were placed in round (30.5 cm diameter and 10.5 cm height) Plexiglas containers with holes for ventilation for irradiation. The irradiator was calibrated with thermoluminescent dosimetry chips planted in phantom mice, and the radiation dose was determined according to previously described methodology (Cameron et al., "Thermoluminescent Dosimetry" (Univ. of Wisconsin Press, Madison, Wis., 1968)). The dose rate used was 1 Gy/min. Total time of irradiation varied as a function of the dose delivered. Immediately after irradiation, the mice were separated into groups of five and returned to climate-controlled cages for observation. The mice were assessed daily for survival.
The results are shown in FIG. 7, which is a graph of percent surviving versus days after irradiation with 11 Gy for control mice (.box-solid., n=10), which were injected with saline, mice treated with DEA/NO 10 minutes prior to irradiation (.largecircle., n=15), and mice treated with DEA/NO 30 minutes prior to irradiation (.circle-solid., n=15).

Female C3H mice = assay: Protection of mice against melphalan toxicity; assay type: in vivo; settings: 70 mg/kg DEA/NO, i.p.
Protocol: Female C3H mice were injected intraperitoneally with varying doses of melphalan alone or melphalan with 70 mg/kg DEA/NO. The methods employed were adaptations of the methods used in Examples 9 and 11.
FIG. 16 is a graph of % survival of animals versus does of melphalan (mg/kg) showing the chemotherapy survival curves for mice exposed to melphalan in the absence or presence of DEA/NO. […] DEA/NO provided approximately a 1.2 protection factor at the 50% survival level.

[3] = tested on: Chinese hamster V79 lung fibroblasts; assay: Radiation survival of hypoxic V79 cells (metabolism-mediated oxygen depletion), clonogenic assay, SER; assay type: cell-based; settings: 0.05 mM, 1% surviving fraction level
[4] = tested on: Chinese hamster V79 fibroblasts; assay: Chemosensitization of V79 cells to bioreductive agents (mitomycin C, SR 4233)

CCN(CC)/[N+]([O-])=N/[O-].[Na+] [DEA/NO]
cytotoxicity of treatment alone ([1]; 2 mM): minimal cytotoxicity
cytotoxicity of treatment alone ([1]; 0.1-1.0 mM): not cytotoxic
enhancement of aerobic radiosensitivity at the 1% survival level ([2]; 2.0 mM): 1.3
effect on aerobic radiosensitivity ([2]; 0.5 and 1.0 mM): had no effect on aerobic radiosensitivity
tumor regrowth delay (KHT tumors; 80 mg/kg 30 min before 15 cGy tumor irradiation): 8 days
survival with no evidence of tumor (KHT tumors; DEA/NO (30 min) group, 15 cGy): Two animals in the DEA/NO (30 min) group survived for at least four weeks with no evidence of tumor
tumors eradicated (KHT tumors; DEA/NO before 15 cGy, n=14): 14%
protection from whole body irradiation (C3H mice; 80 mg/kg i.p. before irradiation): protected mice from whole-body irradiation
Percent survival of mice at 30 days (C3H mice; 80 mg/kg i.p. 10 min before): 44%
Percent survival of mice at 30 days (C3H mice; 80 mg/kg i.p. 30 min before): 60%
protection against the effects of melphalan (Female C3H mice): protected the mice against the effects of melphalan
protection factor at the 50% survival level (Female C3H mice; varying melphalan doses): ~1.2
SER [3]: 1.0
enhancement of hypoxic cytotoxicity of SR 4233 ([4]; 25 μm SR 4233, 1 mM, hypoxic, 1 hr): enhance the hypoxic cytotoxicity of SR 4233
enhancement of mitomycin C cytotoxicity ([4]; aerobic and hypoxic conditions): enhanced cytotoxicity under both aerobic and hypoxic conditions
